According to ChEMBL document CHEMBL1629620 (Antimicrob Agents Chemother, 2009):

Key:
Vaccinia virus [1] = test: Ratio of compound EC50 to cidofovir EC50 for Vaccinia virus Copenhagen; format: functional, Orthopoxvirus vaccinia
[2] = Cytotoxicity against HFF after 7 days by neutral red uptake assay; format: cell-based; settings: human, HFF cells
Vaccinia virus [3] = test: Ratio of compound EC50 to cidofovir EC50 for Vaccinia virus WR; format: functional, Orthopoxvirus vaccinia
Cowpox virus [4] = test: Antiviral activity against Cowpox virus Brighton infected in HFF assessed as reduction of plaque formation after 3 days; format: functional, organism-based; settings: 72 h
Vaccinia virus [5] = test: Antiviral activity against Vaccinia virus Copenhagen infected in HFF assessed as reduction of plaque formation after 3 days; format: functional, organism-based; settings: Orthopoxvirus vaccinia, 72 h
HFF = test: Antiproliferative activity against HFF after 3 days by coulter counter assay; format: cell-based; settings: Homo sapiens, 72 h
Cowpox virus [6] = test: Ratio of compound EC50 to cidofovir EC50 for Cowpox virus Brighton; format: functional
Cowpox virus [7] = test: Antiviral activity against Cowpox virus Brighton infected in BALB/c mouse assessed as day of death at 5 mg/kg, po bid for 5 days administered 8 days after infection; format: functional
Cowpox virus [8] = test: Antiviral activity against Cowpox virus Brighton infected in BALB/c mouse assessed as uncured animal at 15 mg/kg, po bid for 5 days administered 24 hrs after infection relative to control; format: functional
Vaccinia virus [9] = test: Antiviral activity against Vaccinia virus WR infected in BALB/c mouse assessed as uncured animal at 5 mg/kg, ip bid for 5 days administered 24 hrs after infection relative to control; format: functional, Orthopoxvirus vaccinia; settings: route intraperitoneal
Cowpox virus [10] = test: Antiviral activity against Cowpox virus Brighton infected in BALB/c mouse assessed as day of death at 1.5 mg/kg, po bid for 5 days administered 3 days after infection; format: functional
Cowpox virus [11] = test: Antiviral activity against Cowpox virus Brighton infected in BALB/c mouse assessed as day of death at 5 mg/kg, po bid for 5 days administered 2 days after infection; format: functional
Cowpox virus [12] = test: Antiviral activity against Cowpox virus Brighton infected in BALB/c mouse assessed as uncured animal at 1.5 mg/kg, po bid for 5 days administered 3 days after infection relative to control; format: functional
Cowpox virus [13] = test: Antiviral activity against Cowpox virus Brighton infected in BALB/c mouse assessed as uncured animal at 1.5 mg/kg, po bid for 5 days administered 2 days after infection relative to control; format: functional
Vaccinia virus [14] = test: Antiviral activity against Vaccinia virus WR infected in BALB/c mouse assessed as uncured animal at 50 mg/kg, ip bid for 5 days administered 24 hrs after infection relative to control; format: functional, Orthopoxvirus vaccinia; settings: route intraperitoneal
Cowpox virus [15] = test: Antiviral activity against Cowpox virus Brighton infected in BALB/c mouse assessed as uncured animal at 15 mg/kg, po bid for 5 days administered 2 days after infection relative to control; format: functional
Vaccinia virus [16] = test: Antiviral activity against Vaccinia virus WR infected in BALB/c mouse assessed as day of death at 15 mg/kg, ip bid for 5 days administered 24 hrs after infection; format: functional, Orthopoxvirus vaccinia; settings: route intraperitoneal
Cowpox virus [17] = test: Antiviral activity against Cowpox virus Brighton infected in BALB/c mouse assessed as uncured animal at 5 mg/kg, po bid for 5 days administered 5 days after infection relative to control; format: functional
Cowpox virus [18] = test: Antiviral activity against Cowpox virus Brighton infected in BALB/c mouse assessed as day of death at 15 mg/kg, po bid for 5 days administered 2 days after infection; format: functional
Cowpox virus [19] = test: Antiviral activity against Cowpox virus Brighton infected in BALB/c mouse assessed as uncured animal at 5 mg/kg, po bid for 5 days administered 3 days after infection relative to control; format: functional
Cowpox virus [20] = test: Antiviral activity against Cowpox virus Brighton infected in BALB/c mouse assessed as uncured animal at 5 mg/kg, po bid for 5 days administered 2 days after infection relative to control; format: functional
Cowpox virus [21] = test: Antiviral activity against Cowpox virus Brighton infected in BALB/c mouse assessed as uncured animal at 5 mg/kg, po bid for 5 days administered 8 days after infection relative to control; format: functional
Cowpox virus [22] = test: Antiviral activity against Cowpox virus Brighton infected in BALB/c mouse assessed as uncured animal at 1.5 mg/kg, ip bid for 5 days administered 24 hrs after infection relative to control; format: functional; settings: route intraperitoneal
Vaccinia virus [23] = test: Antiviral activity against Vaccinia virus WR infected in HFF assessed as reduction of plaque formation after 3 days; format: functional, organism-based; settings: Orthopoxvirus vaccinia, 72 h
Cowpox virus [24] = test: Antiviral activity against Cowpox virus Brighton infected in BALB/c mouse assessed as uncured animal at 5 mg/kg, ip bid for 5 days administered 24 hrs after infection relative to control; format: functional; settings: route intraperitoneal
Vaccinia virus [25] = test: Antiviral activity against Vaccinia virus WR infected in HFF assessed as inhibition of DNA synthesis after 24 hrs by PCR analysis; format: functional, organism-based; settings: Orthopoxvirus vaccinia
Cowpox virus [26] = test: Antiviral activity against Cowpox virus Brighton infected in BALB/c mouse assessed as day of death at 5 mg/kg, po bid for 5 days administered 5 days after infection; format: functional
Cowpox virus [27] = test: Antiviral activity against Cowpox virus Brighton infected in BALB/c mouse assessed as uncured animal at 5 mg/kg, po bid for 5 days administered 4 days after infection relative to control; format: functional
Cowpox virus [28] = test: Antiviral activity against Cowpox virus Brighton infected in BALB/c mouse assessed as day of death at 15 mg/kg, po bid for 5 days administered 3 days after infection; format: functional
Vaccinia virus [29] = test: Antiviral activity against Vaccinia virus WR infected in BALB/c mouse assessed as uncured animal at 15 mg/kg, ip bid for 5 days administered 24 hrs after infection relative to control; format: functional, Orthopoxvirus vaccinia; settings: route intraperitoneal
Cowpox virus [30] = test: Antiviral activity against Cowpox virus Brighton infected in BALB/c mouse assessed as uncured animal at 1.5 mg/kg, po bid for 5 days administered 24 hrs after infection relative to control; format: functional
Cowpox virus [31] = test: Antiviral activity against Cowpox virus Brighton infected in BALB/c mouse assessed as uncured animal at 15 mg/kg, po bid for 5 days administered 3 days after infection relative to control; format: functional
Cowpox virus [32] = test: Antiviral activity against Cowpox virus Brighton infected in BALB/c mouse assessed as uncured animal at 5 mg/kg, po bid for 5 days administered 24 hrs after infection relative to control; format: functional
Cowpox virus [33] = test: Antiviral activity against Cowpox virus Brighton infected in BALB/c mouse assessed as uncured animal at 15 mg/kg, ip qd for 5 days administered 24 hrs after infection relative to control; format: functional; settings: route intraperitoneal
Cowpox virus [34] = test: Antiviral activity against Cowpox virus Brighton infected in BALB/c mouse assessed as day of death at 5 mg/kg, po bid for 5 days administered 4 days after infection; format: functional
Cowpox virus [35] = test: Antiviral activity against Cowpox virus Brighton infected in BALB/c mouse assessed as uncured animal at 15 mg/kg, ip qd for 5 days administered 3 days after infection relative to control; format: functional; settings: route intraperitoneal
Cowpox virus [36] = test: Antiviral activity against Cowpox virus Brighton infected in BALB/c mouse assessed as day of death at 15 mg/kg, ip qd for 5 days administered 5 days after infection; format: functional; settings: route intraperitoneal
Cowpox virus [37] = test: Antiviral activity against Cowpox virus Brighton infected in BALB/c mouse assessed as uncured animal at 15 mg/kg, ip qd for 5 days administered 5 days after infection relative to control; format: functional; settings: route intraperitoneal
Vaccinia virus [38] = test: Antiviral activity against Vaccinia virus WR infected in BALB/c mouse assessed as uncured animal at 15 mg/kg, ip qd for 5 days administered 24 hrs after infection relative to control; format: functional, Orthopoxvirus vaccinia; settings: route intraperitoneal
Cowpox virus [39] = test: Antiviral activity against Cowpox virus Brighton infected in BALB/c mouse assessed as uncured animal at 15 mg/kg, ip qd for 5 days administered 8 days after infection relative to control; format: functional; settings: route intraperitoneal
Cowpox virus [40] = test: Antiviral activity against Cowpox virus Brighton infected in BALB/c mouse assessed as day of death at 15 mg/kg, ip qd for 5 days administered 8 days after infection; format: functional; settings: route intraperitoneal
Cowpox virus [41] = test: Antiviral activity against Cowpox virus Brighton infected in BALB/c mouse assessed as uncured animal at 15 mg/kg, ip qd for 5 days administered 2 days after infection relative to control; format: functional; settings: route intraperitoneal
Cowpox virus [42] = test: Antiviral activity against Cowpox virus Brighton infected in BALB/c mouse assessed as uncured animal at 15 mg/kg, ip qd for 5 days administered 4 days after infection relative to control; format: functional; settings: route intraperitoneal

## O=c1[nH]c(=O)n([C@H]2C[C@H](O)[C@@H](CO)S2)cc1Br
Vaccinia virus [1]
  Ratio EC50: 20
[2]
  CC50 at 168 h: > 100000 nM
Vaccinia virus [3]
  Ratio EC50: 20
Cowpox virus [4]
  EC50: 50 nM
Vaccinia virus [5]
  EC50: 90 nM
HFF
  IC50: 200 nM
Cowpox virus [6]
  Ratio EC50: 20

## O=c1[nH]c(=O)n([C@H]2C[C@H](O)[C@@H](CO)S2)cc1C(F)(F)F
Vaccinia virus [1]
  Ratio EC50: 20
[2]
  CC50 at 168 h: > 100000 nM
Vaccinia virus [3]
  Ratio EC50: 20
Cowpox virus [4]
  EC50: 80 nM
Vaccinia virus [5]
  EC50: 100 nM
HFF
  IC50: 140 nM
Cowpox virus [6]
  Ratio EC50: 20

## O=c1[nH]c(=O)n([C@H]2C[C@H](O)[C@@H](CO)S2)cc1I
Cowpox virus [7]
  Activity: 9.7 days
Cowpox virus [8]
  Activity: 0%
Vaccinia virus [9]
  Activity: 0%
Cowpox virus [10]
  Activity: 14 days
Cowpox virus [11]
  Activity: 16 days
Cowpox virus [12]
  Activity: 13%
Cowpox virus [13]
  Activity: 0%
Vaccinia virus [14]
  Activity: 0%
Cowpox virus [15]
  Activity: 7%
Vaccinia virus [16]
  Activity: 11%
[2]
  CC50 at 168 h: > 100000 nM
Cowpox virus [17]
  Activity: 87%
Cowpox virus [18]
  Activity: 18%
Cowpox virus [19]
  Activity: 0%
Cowpox virus [20]
  Activity: 13%
Cowpox virus [21]
  Activity: 100%
Cowpox virus [22]
  Activity: 0%
Vaccinia virus [23]
  EC50: 40 nM
Vaccinia virus [5]
  EC50: 500 nM
Cowpox virus [24]
  Activity: 0%
Vaccinia virus [25]
  EC50: 600 nM
Cowpox virus [26]
  Activity: 9.8 days
Cowpox virus [27]
  Activity: 27%
Cowpox virus [28]
  Activity: 14%
HFF
  IC50: 3000 nM
Vaccinia virus [29]
  Activity: 7%
Cowpox virus [30]
  Activity: 0%
Cowpox virus [31]
  Activity: 7%
Cowpox virus [32]
  Activity: 0%
Cowpox virus [33]
  Activity: 0%
Cowpox virus [34]
  Activity: 13.3 days

## CC(=O)OC[C@H]1S[C@@H](n2cc(I)c(=O)[nH]c2=O)C[C@@H]1OC(C)=O
Vaccinia virus [1]
  Ratio EC50: 20
[2]
  CC50 at 168 h: > 100000 nM
Vaccinia virus [3]
  Ratio EC50: 20
Cowpox virus [4]
  EC50: 330 nM
Vaccinia virus [5]
  EC50: 900 nM
HFF
  IC50: 26000 nM
Cowpox virus [6]
  Ratio EC50: 20

## Nc1nc(=O)n([C@@H]2S[C@H](CO)[C@@H](O)[C@@H]2O)cc1F
Vaccinia virus [1]
  Ratio EC50: 20
[2]
  CC50 at 168 h: > 100000 nM
Vaccinia virus [3]
  Ratio EC50: 20
Cowpox virus [4]
  EC50: 400 nM
Vaccinia virus [5]
  EC50: 100 nM
HFF
  IC50: < 30 nM
Cowpox virus [6]
  Ratio EC50: 20

## Cc1cn([C@H]2C[C@H](O)[C@@H](CO)S2)c(=O)[nH]c1=O [4'-THIOTHYMIDINE]
Vaccinia virus [1]
  Ratio EC50: 20
[2]
  CC50 at 168 h: > 100000 nM
Vaccinia virus [3]
  Ratio EC50: 20
Cowpox virus [4]
  EC50: 20 nM
Vaccinia virus [5]
  EC50: 30 nM
HFF
  IC50: < 30 nM
Cowpox virus [6]
  Ratio EC50: 20

## Nc1ccn(C[C@@H](CO)OCP(=O)(O)O)c(=O)n1.O.O [CIDOFOVIR]
Cowpox virus [35]
  Activity: 0%
Cowpox virus [36]
  Activity: 10.5 days
Cowpox virus [37]
  Activity: 80%
Vaccinia virus [38]
  Activity: 0%
Cowpox virus [39]
  Activity: 27%
[2]
  CC50 at 168 h: > 317000 nM
Vaccinia virus [23]
  EC50: 10000 nM
Cowpox virus [40]
  Activity: 12 days
Vaccinia virus [5]
  EC50: 19000 nM
Cowpox virus [41]
  Activity: 0%
HFF
  IC50: 1900 nM
Cowpox virus [33]
  Activity: 0%
Cowpox virus [42]
  Activity: 0%

## O=c1[nH]c(=O)n([C@H]2C[C@H](O)[C@@H](CO)O2)cc1I [IDOXURIDINE]
Vaccinia virus [23]
  EC50: 2800 nM
Vaccinia virus [25]
  EC50: 17000 nM

## O=C(NN1C(=O)[C@@H]2[C@@H]3C=C[C@@H]([C@H]4C[C@@H]34)[C@@H]2C1=O)c1ccc(C(F)(F)F)cc1 [TECOVIRIMAT]
Vaccinia virus [23]
  EC50: 70 nM
Vaccinia virus [25]
  EC50: > 100000 nM

## Nc1ccn([C@@H]2S[C@H](CO)[C@@H](O)[C@@H]2O)c(=O)n1 [THIARABINE]
Vaccinia virus [1]
  Ratio EC50: 20
[2]
  CC50 at 168 h: > 88000 nM
Vaccinia virus [3]
  Ratio EC50: 20
Cowpox virus [4]
  EC50: 1600 nM
Vaccinia virus [5]
  EC50: 300 nM
HFF
  IC50: 1000 nM
Cowpox virus [6]
  Ratio EC50: 20
